Assay results published in the NIST ThermoML archive (doi:10.1021/acs.jced.9b00062).
Numbers after ± are expanded uncertainties.

Legend:
[1] = Molar enthalpy of transition or fusion; details: Crystal; DSC
[2] = for Normal melting temperature: DTA

COc1c(Br)cc(Br)cc1Br [2,4,6-tribromoanisole]
Details	Molar enthalpy of transition or fusion [kJ/mol]
[1]	23.9 ± 1.2

[2]
Details	vapor or sublimation pressure [kPa]
330.66 K, Crystal, Closed cell (Static) method	0.00284 ± 0.00016
332.63 K, Crystal, Closed cell (Static) method	0.00349 ± 0.00018
334.5 K, Crystal, Closed cell (Static) method	0.0042 ± 0.0002
336.57 K, Metastable liquid, Closed cell (Static) method	0.00889 ± 0.00037
336.63 K, Crystal, Closed cell (Static) method	0.0051 ± 0.00023
338.58 K, Crystal, Closed cell (Static) method	0.00623 ± 0.00027
338.61 K, Metastable liquid, Closed cell (Static) method	0.01033 ± 0.00042
340.54 K, Crystal, Closed cell (Static) method	0.00747 ± 0.00031
340.57 K, Metastable liquid, Closed cell (Static) method	0.01173 ± 0.00047
342.54 K, Metastable liquid, Closed cell (Static) method	0.01369 ± 0.00053
342.55 K, Crystal, Closed cell (Static) method	0.00915 ± 0.00038
344.5 K, Crystal, Closed cell (Static) method	0.01086 ± 0.00044
344.5 K, Metastable liquid, Closed cell (Static) method	0.01549 ± 0.00055
346.47 K, Crystal, Closed cell (Static) method	0.01317 ± 0.00052
346.48 K, Metastable liquid, Closed cell (Static) method	0.01786 ± 0.00059
348.43 K, Crystal, Closed cell (Static) method	0.01563 ± 0.00056
348.5 K, Metastable liquid, Closed cell (Static) method	0.02061 ± 0.00063
350.42 K, Crystal, Closed cell (Static) method	0.01881 ± 0.00061
350.43 K, Metastable liquid, Closed cell (Static) method	0.02345 ± 0.00068
352.4 K, Crystal, Closed cell (Static) method	0.0224 ± 0.00066
352.41 K, Metastable liquid, Closed cell (Static) method	0.02697 ± 0.00073
354.32 K, Crystal, Closed cell (Static) method	0.0266 ± 0.00073
354.42 K, Metastable liquid, Closed cell (Static) method	0.03065 ± 0.00079
356.36 K, Metastable liquid, Closed cell (Static) method	0.03485 ± 0.00085
356.37 K, Crystal, Closed cell (Static) method	0.03175 ± 0.0008
358.31 K, Metastable liquid, Closed cell (Static) method	0.03946 ± 0.00092
360.25 K, Metastable liquid, Closed cell (Static) method	0.04472 ± 0.001
362.27 K, Closed cell (Static) method, Liquid	0.05049 ± 0.0011
364.24 K, Closed cell (Static) method, Liquid	0.05678 ± 0.0012
366.22 K, Closed cell (Static) method, Liquid	0.06459 ± 0.0013
368.15 K, Closed cell (Static) method, Liquid	0.07257 ± 0.0014
370.19 K, Closed cell (Static) method, Liquid	0.08197 ± 0.0016
372.11 K, Closed cell (Static) method, Liquid	0.09183 ± 0.0017
374.05 K, Closed cell (Static) method, Liquid	0.1023 ± 0.0019
376.07 K, Closed cell (Static) method, Liquid	0.1152 ± 0.0021
377.95 K, Closed cell (Static) method, Liquid	0.1277 ± 0.0023
379.95 K, Closed cell (Static) method, Liquid	0.1426 ± 0.0021
381.85 K, Closed cell (Static) method, Liquid	0.1595 ± 0.0023
383.82 K, Closed cell (Static) method, Liquid	0.177 ± 0.0024
385.79 K, Closed cell (Static) method, Liquid	0.1958 ± 0.0025
387.78 K, Closed cell (Static) method, Liquid	0.2203 ± 0.0027
389.79 K, Closed cell (Static) method, Liquid	0.2436 ± 0.0029
391.72 K, Closed cell (Static) method, Liquid	0.2676 ± 0.0031

Details	Normal melting temperature [°C]
[2], Crystal	86.29 ± 0.4

COc1c(Cl)cc(Cl)cc1Cl [2,4,6-trichloroanisole]
Details	Molar enthalpy of transition or fusion [kJ/mol]
[1]	22.4 ± 0.78

[2]
Details	vapor or sublimation pressure [kPa]
297.11 K, Crystal, Closed cell (Static) method	0.00239 ± 0.00014
300.13 K, Crystal, Closed cell (Static) method	0.00337 ± 0.00017
303.1 K, Crystal, Closed cell (Static) method	0.00462 ± 0.00021
306.06 K, Crystal, Closed cell (Static) method	0.00649 ± 0.00028
309.01 K, Crystal, Closed cell (Static) method	0.00877 ± 0.00036
311.98 K, Crystal, Closed cell (Static) method	0.01199 ± 0.00048
315.2 K, Crystal, Closed cell (Static) method	0.01642 ± 0.00057
317.95 K, Crystal, Closed cell (Static) method	0.02189 ± 0.00065
319.65 K, Metastable liquid, Closed cell (Static) method	0.03551 ± 0.00086
320.87 K, Crystal, Closed cell (Static) method	0.02895 ± 0.00076
322.82 K, Metastable liquid, Closed cell (Static) method	0.04391 ± 0.00099
323.91 K, Crystal, Closed cell (Static) method	0.03921 ± 0.00092
325.77 K, Metastable liquid, Closed cell (Static) method	0.05384 ± 0.0011
326.89 K, Crystal, Closed cell (Static) method	0.05174 ± 0.0011
328.77 K, Metastable liquid, Closed cell (Static) method	0.06611 ± 0.0013
329.85 K, Crystal, Closed cell (Static) method	0.06647 ± 0.0013
331.73 K, Metastable liquid, Closed cell (Static) method	0.0803 ± 0.0015
334.71 K, Closed cell (Static) method, Liquid	0.09766 ± 0.0018
337.68 K, Closed cell (Static) method, Liquid	0.118 ± 0.0021
340.63 K, Closed cell (Static) method, Liquid	0.1424 ± 0.0021
343.63 K, Closed cell (Static) method, Liquid	0.1712 ± 0.0023
346.05 K, Closed cell (Static) method, Liquid	0.1971 ± 0.0025
348.6 K, Closed cell (Static) method, Liquid	0.2292 ± 0.0028
351.58 K, Closed cell (Static) method, Liquid	0.2724 ± 0.0032
354.51 K, Closed cell (Static) method, Liquid	0.3225 ± 0.0036
356.47 K, Closed cell (Static) method, Liquid	0.3593 ± 0.0039
359.37 K, Closed cell (Static) method, Liquid	0.4214 ± 0.0045
362.38 K, Closed cell (Static) method, Liquid	0.4943 ± 0.0051
365.32 K, Closed cell (Static) method, Liquid	0.5801 ± 0.0058
368.31 K, Closed cell (Static) method, Liquid	0.6729 ± 0.0066

Details	Normal melting temperature [°C]
[2], Crystal	59.32 ± 0.39

Oc1c(Br)cc(Br)cc1Br [2,4,6-tribromophenol]
Details	Molar enthalpy of transition or fusion [kJ/mol]
[1]	20.8 ± 0.9

Details	mass density [kg/m3]
[2], 150 K, 101.33 kPa, Crystal, X-ray diffraction	2712 ± 13

[2]
Details	vapor or sublimation pressure [kPa]
307.16 K, Crystal, Calculated from knudsen effusion weight loss	0.000107 ± 6e-06
309.36 K, Crystal, Calculated from knudsen effusion weight loss	0.000141 ± 8e-06
311.2 K, Crystal, Calculated from knudsen effusion weight loss	0.000177 ± 9e-06
313.15 K, Crystal, Calculated from knudsen effusion weight loss	0.000221 ± 1.2e-05
315.37 K, Crystal, Calculated from knudsen effusion weight loss	0.000286 ± 1.5e-05
317.19 K, Crystal, Calculated from knudsen effusion weight loss	0.000358 ± 1.9e-05
319.15 K, Crystal, Calculated from knudsen effusion weight loss	0.00044 ± 2.4e-05
321.33 K, Crystal, Calculated from knudsen effusion weight loss	0.00057 ± 3e-05
323.2 K, Crystal, Calculated from knudsen effusion weight loss	0.0007 ± 3.7e-05
325.15 K, Crystal, Calculated from knudsen effusion weight loss	0.000857 ± 4.6e-05
327.33 K, Crystal, Calculated from knudsen effusion weight loss	0.0011 ± 9.1e-05
329.21 K, Crystal, Calculated from knudsen effusion weight loss	0.00133 ± 0.00011
336.49 K, Crystal, Closed cell (Static) method	0.00284 ± 0.00016
338.49 K, Crystal, Closed cell (Static) method	0.00343 ± 0.00018
340.48 K, Crystal, Closed cell (Static) method	0.00423 ± 0.0002
342.48 K, Crystal, Closed cell (Static) method	0.00513 ± 0.00023
344.42 K, Crystal, Closed cell (Static) method	0.00612 ± 0.00027
344.43 K, Metastable liquid, Closed cell (Static) method	0.01029 ± 0.00042
346.35 K, Crystal, Closed cell (Static) method	0.00743 ± 0.00031
346.53 K, Metastable liquid, Closed cell (Static) method	0.012 ± 0.00048
348.28 K, Metastable liquid, Closed cell (Static) method	0.01367 ± 0.00053
348.35 K, Crystal, Closed cell (Static) method	0.00894 ± 0.00037
350.35 K, Crystal, Closed cell (Static) method	0.01085 ± 0.00044
350.37 K, Metastable liquid, Closed cell (Static) method	0.01582 ± 0.00056
352.36 K, Metastable liquid, Closed cell (Static) method	0.01813 ± 0.0006
352.41 K, Crystal, Closed cell (Static) method	0.01316 ± 0.00052
354.35 K, Metastable liquid, Closed cell (Static) method	0.02079 ± 0.00064
354.4 K, Crystal, Closed cell (Static) method	0.01584 ± 0.00056
356.31 K, Metastable liquid, Closed cell (Static) method	0.02367 ± 0.00068
358.2 K, Metastable liquid, Closed cell (Static) method	0.02689 ± 0.00073
360.17 K, Metastable liquid, Closed cell (Static) method	0.03085 ± 0.00079
362.2 K, Metastable liquid, Closed cell (Static) method	0.03491 ± 0.00085
364.19 K, Metastable liquid, Closed cell (Static) method	0.04045 ± 0.00094
366.13 K, Metastable liquid, Closed cell (Static) method	0.04605 ± 0.001
368.11 K, Closed cell (Static) method, Liquid	0.05207 ± 0.0011
370.06 K, Closed cell (Static) method, Liquid	0.05865 ± 0.0012
372.03 K, Closed cell (Static) method, Liquid	0.06591 ± 0.0013
374.17 K, Closed cell (Static) method, Liquid	0.07545 ± 0.0015
376.12 K, Closed cell (Static) method, Liquid	0.08537 ± 0.0016
378.03 K, Closed cell (Static) method, Liquid	0.09595 ± 0.0018
380 K, Closed cell (Static) method, Liquid	0.1071 ± 0.002
381.93 K, Closed cell (Static) method, Liquid	0.119 ± 0.0022
383.93 K, Closed cell (Static) method, Liquid	0.1348 ± 0.0021
385.88 K, Closed cell (Static) method, Liquid	0.1513 ± 0.0022
387.86 K, Closed cell (Static) method, Liquid	0.1682 ± 0.0023
389.84 K, Closed cell (Static) method, Liquid	0.1876 ± 0.0025
391.79 K, Closed cell (Static) method, Liquid	0.2094 ± 0.0026
393.77 K, Closed cell (Static) method, Liquid	0.2339 ± 0.0028
395.73 K, Closed cell (Static) method, Liquid	0.259 ± 0.0031
397.68 K, Closed cell (Static) method, Liquid	0.284 ± 0.0033
399.69 K, Closed cell (Static) method, Liquid	0.3164 ± 0.0036
401.66 K, Closed cell (Static) method, Liquid	0.3517 ± 0.0039

Details	Normal melting temperature [°C]
[2], Crystal	92.92 ± 0.39
